Tests used:
Sprague-Dawley rats = test: Rat social interaction paradigm; format: in vivo; conditions: 0.5 mg/kg i.p.
Description: The rat social interaction paradigm takes advantage of rats' natural behaviour in novel situations. The more ‘anxious’ the animals are, the less likely they are engage in social interaction with the cohort. Anxiolytic drugs typically increase the amount of time rodents spend socially interacting with one another. (Pile, S. E., (1980). The use of social interaction as a method for detecting anxiolytic activity of chlor-diazepoxide-like drugs. In Current Protocols in Neuroscience (pp. 8.3.3-8.3.4), John-Wiley & Sons).
The social-interaction (SI) test arena constituted of a 60×60 cm white Plexiglas floor, enclosed by 35-cm high walls of the same material. The arena was surrounded by black curtain, and a closed circuit camera was positioned above the setup, to feed live video signals to the experimenter seated in a separate room, for behavioral assessment and recording.
Each rat was placed alone in the SI box for 7.5 min daily for 2 days, in order to familiarize the animals with the test environment. Animals were paired according to their body weights (less than 10 g difference) and each pair was randomly assigned to one of the treatment groups. Rats received either betulinic acid 0.5 mg/kg i.p., betulinic acid methyl ester (methyl betulinate) 0.5 mg/kg i.p., or peanut oil only (control). Drugs were injected (i.p.) 60 min prior to testing. Tests were carried out at three intervals, 1 h, 2.5 h and 4 h after injection. Each pair was tested at the 1-h interval, then new pairs from within the same drug group were formed for the 2.5-h interval and then again at the 4-h interval (new pairs were formed for each test interval, to control for the potential confounding effect partner familiarity). […] The behaviors scored included the amount of time the pairs spent interacting together (sniffing, grooming and chasing) as well as the number of times the animals initiated contact.

Sprague Dawley rats = test: Locomotor activity after chronic administration; format: in vivo, rat; conditions: chronic 0.5 mg/kg daily orally, one night 5 p.m. to 7 a.m. (FIG. 11)
Method: Test animals and drug treatments were as in Example 14. Locomotor activity was recorded for one night (5 p.m. to 7 a.m. the following morning) in the control as well as in the betulinic acid and methyl ester of betulinic acid exposed groups. Locomotor activity was monitored using infrared sensors located on the roof of the animals' cage. Eight independent sensors monitored activity of animals according to the number of quadrants traversed.

[1] = Weight gain over chronic treatment; format: in vivo, rat; conditions: rats, chronic 0.5 mg/kg daily orally (FIG. 12)
Solubility = format: physicochemical; conditions: in water and in methanol
[2] = Elevated plus maze, betulinic acid vs structurally related compounds (Example 11); format: in vivo
Description: This example compares the anxiolytic activity of betulinic acid and some other structurally related compounds. Results are illustrated in FIG. 7.

## C=C(C)[C@@H]1CC[C@]2(C(=O)OC)CC[C@]3(C)[C@H](CC[C@@H]4[C@@]5(C)CC[C@H](O)C(C)(C)[C@@H]5CC[C@]43C)[C@@H]12 [betulinic acid methyl ester, Methyl betulinate]
Sprague-Dawley rats
  frequency of initiated contact: not significant
Sprague-Dawley rats; data collapsed across 1 h, 2.5 h and 4 h (FIG. 8)
  amount of social interaction (interaction time) compared to the control group: significantly increased the amount of social interaction
Sprague-Dawley rats; p<0.05
  increase of social interaction compared to betulinic acid: significantly more effective at increasing social interaction than betulinic acid
Sprague Dawley rats
  adverse effect on locomotor activity or pattern: neither betulinic acid nor the methyl ester of betulinic acid had an adverse effect on locomotor activity or pattern
[1]
  effect of chronic drug treatment on weight gain: did not seem to affect weight gain in a significant manner

## C=C(C)C1CCC2(C(=O)[O-])CCC3(C)C(CCC4C5(C)CCC(O)C(C)(C)C5CCC43C)C12.[Na+] (centres unmarked) [sodium salt of betulinic acid]
Solubility
  solubility relative to pure betulinic acid: greater in water and in methanol than pure betulinic acid

## CC1(C)CC[C@]2(C)CC[C@]3(C)C(=CC[C@@H]4[C@@]5(C)CC[C@H](O)C(C)(C)[C@@H]5CC[C@]43C)[C@@H]2C1 [beta-amyrin]
[2]; 5 mg/kg (FIG. 7)
  anxiolytic activity on the elevated plus maze paradigm: neither beta-amyrin (5 mg/kg) nor oleanolic acid (0.5 mg/kg), two compounds structurally related to betulinic acid, displayed any anxiolytic activity

## CC1(C)CC[C@]2(C(=O)O)CC[C@]3(C)C(=CC[C@@H]4[C@@]5(C)CC[C@H](O)C(C)(C)[C@@H]5CC[C@]43C)[C@@H]2C1 [oleanolic acid]
[2]; 0.5 mg/kg
  anxiolytic activity on the elevated plus maze paradigm: neither beta-amyrin (5 mg/kg) nor oleanolic acid (0.5 mg/kg), two compounds structurally related to betulinic acid, displayed any anxiolytic activity

Source: US20130065868A1, “ANXIOYTIC MARCGRAVIACEAE COMPOSITIONS CONTAINING BETULINIC ACID, BETULINIC ACID DERIVATIVES, AND METHODS” (UNIVERSITY OF OTTAWA, priority 2002, published 2013)
